Structures can show the parent of a compound that is named as a salt.
Legend:
mice [1] = experiment: Maximal electroshock (MES) model, mice; settings: mice; for MICE MES ED50: intraperitoneal (i.p.) administration
rats [2] = experiment: Maximal electroshock (MES) model, rats; settings: rats, oral (p.o.) administration; median effective dose
rats [3] = experiment: Neurotoxicity in rats, positional sense test and gait stance test; settings: rats p.o.; positional sense test and gait stance test
Procedure: (§1) Neurotoxicity of the claimed agents was also assessed in mice (i.p. administration) by the rotorod ataxia test and/or in rats (p.o. administration) by positional sense test and gait stance test. […] The term quantitating the neurotoxicity is the medial neurological toxic dose (TD50), was determined in the above tests.

mice [4] = experiment: Neurotoxicity in mice, rotorod ataxia test; settings: mice i.p.; rotorod ataxia test
Procedure: as §1

male ICR albino mice = experiment: Hypobaric hypoxic model in mice, survival time; format: in vivo, mouse
Procedure: Desiccator B was disconnected and allowed to equilibrate with room air whilst desiccator A was evacuated to a pressure of 100 mmHg. […] The survival time from the moment of induction of hypoxia to the time of cessation of respiration was recorded for each mouse for a maximum of 15 minutes after which time room air was reintroduced to desiccator B. Survivors were monitored for signs of lethargy or vitality.
Effect of drug treatment was assessed as the percent of the survival time of the drug treated group with respect to the saline injected or vehicle injected control group. Control groups were run twice, before and after each experimental group and consisted of 12-16 mice in groups of 4 mice. Each experimental group always consisted of 4 mice to ensure a constant residual volume of oxygen in all tests. The effect of each dose of test drug was determined in duplicate i.e. two groups of 4 mice.
All drugs were administered intra-peritoneally at the dose indicated one hour prior to exposure to hypoxia.

[5] = 50 mg/kg ip one hour prior to hypoxia
[6] = 100 mg/kg ip one hour prior to hypoxia

For `NC(=O)CNC1CCCc2ccccc21` (racemic) [Compound 4, (rac)-N-(2-Acetamido)-1-aminotetralin], the “MICE MES ED50” value (mice [1]) was under 100 mg/kg.
`CC(C)(C)OC(=O)NCCCC(=O)NC1CCc2ccccc21` (racemic) [Compound 6, (rac)-N-(N-Boc-4-aminobutyryl)-1-aminoindan] gave a melting point of 118 to 120 °C.
Work on `O=CNC1CCc2ccccc21` (racemic) [Compound 8, (rac)-N-Formyl-1-aminoindan] yielded a melting point of 105 °C.
With `CCCC(=O)NC1CCc2ccccc21` (racemic) [Compound 11, (rac)-N-Butyryl-1-aminoindan] the melting point was 84 to 85 °C.
With `CN(C)C1CCc2ccccc21` (racemic) [Compound 15, (rac)-N,N-Dimethyl-1-aminoindan.HCl] the “RATS MES 50” value (rats [2]) was 50 mg/kg, the “RATS TD50” value (rats [3]) was over 50 mg/kg and the “MICE TD50” value (mice [4]) was under 100 mg/kg.
With `c1ccc(CNC2CCc3ccccc32)cc1` (racemic) [Compound 16, (rac)-N-Benzyl-1-aminoindan.HCl] the “MICE MES ED50” value (mice [1]) was under 50 mg/kg, the “RATS MES 50” value (rats [2]) was 50 mg/kg and the “RATS TD50” value (rats [3]) was over 50 mg/kg.
`CC(=O)NC1CCc2cccc(C)c21` (racemic) [Compound 20, (rac)-7-Methyl-N-acetyl-1-aminoindan] gave a melting point of 166 to 167 °C.
In the case of `COc1ccc2c(c1)C(N)CC2` (racemic) [Compound 25, (rac)-6-Methoxy-1-aminoindan.HCl], the “MICE MES ED50” value (mice [1]) is reported as under 100 mg/kg, the “RATS MES 50” value (rats [2]) is reported as 50 mg/kg and the “MICE TD50” value (mice [4]) is reported as over 100 mg/kg.
Molecule `COc1ccc2c(c1)C(NC(C)=O)CC2` (racemic) [Compound 26, (rac) 6-methoxy-N-acetyl-1-aminoindan] has a melting point of 131 to 132 °C.
In the case of `Cc1cccc2c1C(N)CC2` (racemic) [Compound 28, (rac)-7-Methyl-1-aminoindan.HCl], the “MICE MES ED50” value (mice [1]) is reported as under 100 mg/kg, the “RATS MES 50” value (rats [2]) is reported as under 50 mg/kg and the “PROTECTION % OF RESPECTIVE CONTROL” value (male ICR albino mice; [5]) is reported as 361 ± 106%. For the same molecule, the “PROTECTION % OF RESPECTIVE CONTROL” value (male ICR albino mice; [6]) was 941 ± 34%, the “RATS TD50” value (rats [3]) was over 50 mg/kg and the “MICE TD50” value (mice [4]) was under 100 mg/kg.
With `COc1ccc2c(c1OC)CCC2N` (racemic) [Compound 31, (rac)-4,5-Dimethoxy-1-aminoindan.HCl] the “activity in the MES model in mice, in words” value (“activity in the MES model” below) (mice [1]) was “showed activity”, the “MICE MES ED50” value (mice [1]) was under 100 mg/kg and the “RATS TD50” value (rats [3]) was over 50 mg/kg. For the same molecule, the “MICE TD50” value (mice [4]) was under 100 mg/kg.
In the case of `NC1CCc2ccc(O)cc21` (racemic) [Compound 34, (rac)-6-Hydroxy-1-aminoindan.HCl], the “activity in the MES model” value (mice [1]) is reported as “showed activity”, the “MICE MES ED50” value (mice [1]) is reported as under 300 mg/kg and the “MICE TD50” value (mice [4]) is reported as over 300 mg/kg.
In the case of `Cc1ccc2c(c1)CCC2N` (racemic) [Compound 38, (rac)-5-Methyl-1-aminoindan.HCl], the “MICE MES ED50” value (mice [1]) is reported as under 100 mg/kg, the “RATS MES 50” value (rats [2]) is reported as 50 mg/kg and the “RATS TD50” value (rats [3]) is reported as over 50 mg/kg. The “MICE TD50” value (mice [4]) was under 100 mg/kg.
In the case of `C[C@@H]1Cc2ccccc2[C@H]1N` (racemic) [Compound 39, (rac)-trans-2-Methyl-1-aminoindan.HCl], the “MICE MES ED50” value (mice [1]) is reported as under 100 mg/kg, the “RATS MES 50” value (rats [2]) is reported as under 50 mg/kg and the “PROTECTION % OF RESPECTIVE CONTROL” value (male ICR albino mice; [5]) is reported as 600 ± 213%. For the same molecule, the “PROTECTION % OF RESPECTIVE CONTROL” value (male ICR albino mice; [6]) was 798 ± 249%, the “RATS TD50” value (rats [3]) was over 50 mg/kg and the “MICE TD50” value (mice [4]) was under 100 mg/kg.
For `C[C@H]1Cc2ccccc2[C@H]1N` (racemic) [Compound 40, (rac)-cis-2-Methyl-1-aminoindan.HCl], the “MICE MES ED50” value (mice [1]) was under 100 mg/kg, the “RATS MES 50” value (rats [2]) was under 50 mg/kg and the “PROTECTION % OF RESPECTIVE CONTROL” value (male ICR albino mice; [5]) was 374 ± 190%. For the same molecule, the “PROTECTION % OF RESPECTIVE CONTROL” value (male ICR albino mice; [6]) was 569 ± 173%, the “RATS TD50” value (rats [3]) was over 50 mg/kg and the “MICE TD50” value (mice [4]) was under 100 mg/kg.
In the case of `Cc1cc(C)c2c(c1)C(C)CC2N.Cl` (racemic) [Compound 41, (rac)-3,5,7-Trimethyl-1-aminoindan.HCl], the “PROTECTION % OF RESPECTIVE CONTROL” value (male ICR albino mice; [5]) is reported as 187 ± 41% and the “PROTECTION % OF RESPECTIVE CONTROL” value (male ICR albino mice; [6]) is reported as 644 ± 316%.
In the case of `NC1CCc2cccc(O)c21` (racemic) [Compound 42, (rac)-7-Hydroxy-1-aminoindan.HCl], the “RATS MES 50” value (rats [2]) is reported as under 50 mg/kg, the “PROTECTION % OF RESPECTIVE CONTROL” value (male ICR albino mice; [5]) is reported as 179 ± 170% and the “PROTECTION % OF RESPECTIVE CONTROL” value (male ICR albino mice; [6]) is reported as 228 ± 119%. The “RATS TD50” value (rats [3]) was over 50 mg/kg.
With `c1ccc2c(c1)CCC2NC1CCc2ccccc21` (racemic) [Compound 43, (rac)-N,N-Di-(1-indanyl)amine.HCl] the “MICE MES ED50” value (mice [1]) was under 100 mg/kg, the “RATS MES 50” value (rats [2]) was under 50 mg/kg and the “RATS TD50” value (rats [3]) was over 50 mg/kg. The “MICE TD50” value (mice [4]) was under 100 mg/kg.
For `O=C(NC1CCc2ccccc21)c1ccccc1` (racemic) [Compound 46, (rac)-N-Benzoyl-1-aminoindan], the melting point was 140 to 142 °C.
For `COc1cccc(C(=O)NC2CCc3ccccc32)c1` (racemic) [Compound 52, (rac)-N-(m-Anisoyl)-1-aminoindan], the melting point was 140 °C.
`O=C(NC1CCc2ccccc21)c1ccc(F)cc1` (racemic) [Compound 53, (rac)-N-(4′-Fluorobenzoyl)-1-aminoindan] showed a melting point of 109 to 110 °C.
`Cc1ccc(C(=O)NC2CCc3ccccc32)cc1` (racemic) [Compound 54, (rac)-N-(p-Toluoyl)-1-aminoindan] showed a melting point of 140 °C.
With `CC(=O)NC1CCc2ccc(C#N)cc21` (racemic) [Compound 61, (rac)-6-Cyano-N-acetyl-1-aminoindan] the melting point was 175 to 176 °C.
`CCOC(=O)c1ccc2c(c1)C(NC(C)=O)CC2` (racemic) [Compound 63, (rac)-6-Ethoxycarbonyl-N-acetyl-1-aminoindan] showed a melting point of 146 to 147 °C.
`CCCN(CCC)S(=O)(=O)c1ccc(C(=O)NC2CCc3ccccc32)cc1` (racemic) [Compound 69, (rac)-N-(4-(di-n-Propylsulfamoyl)benzoyl)-1-aminoindan] gave a melting point of 124 to 125 °C.
For `COc1ccc2c(c1OC)CC[C@H]2NC(C)=O` [Compound 21, (R)-4,5-Dimethoxy-N-acetyl-1-aminoindan], the melting point was 175 °C.
For `NC1Cc2ccccc21` (stereo not drawn) [Compound 27, 1-Aminobenzocyclobutene.HCl], the “MICE MES ED50” value (mice [1]) was under 100 mg/kg, the “RATS MES 50” value (rats [2]) was under 50 mg/kg and the “RATS TD50” value (rats [3]) was over 50 mg/kg. The “MICE TD50” value (mice [4]) was over 100 mg/kg.
With `COc1ccc2c(c1OC)CC[C@@H]2N.Cl` [Compound 30, (S)-4,5-Dimethoxy-1-aminoindan.HCl] the “PROTECTION % OF RESPECTIVE CONTROL” value (male ICR albino mice; [5]) was 265 ± 284% and the “PROTECTION % OF RESPECTIVE CONTROL” value (male ICR albino mice; [6]) was 379 ± 202%.
In the case of `CCCC(CCC)C(=O)NC1CCc2ccccc21` (stereo not drawn) [Compound 47, N-(2-n-Propylpentanoyl)-1-aminoindan], the melting point is reported as 133 to 134 °C.
Molecule `CC(=O)NC1CCc2ccc([N+](=O)[O-])cc21` (stereo not drawn) [Compound 58, N-Acetyl-6-nitro-1-aminoindan] has a melting point of 179 °C.
`O=C(N[C@@H]1CCc2ccccc21)C(F)(F)F` [Compound 68, (R)-N-Trifluoroacetyl-1-aminoindan] gave a melting point of 152 to 153 °C.
With `O=C(CCCCC(=O)NC1CCc2ccccc21)NC1CCc2ccccc21` (stereo not drawn) [Compound 73, N,N′-Bis-(1-indanyl)adipamide] the melting point was 227 °C.
`O=C(CCCCC(=O)N[C@@H]1CCc2ccccc21)N[C@@H]1CCc2ccccc21` [Compound 74, N,N′-Bis-((R)-1-indanyl)adipamide] gave a melting point of 244 to 247 °C.
Work on `O=C(CCC(=O)N[C@@H]1CCc2ccccc21)N[C@@H]1CCc2ccccc21` [Compound 75, N,N′-Bis-((R)-1-indanyl)succinamide] yielded a melting point of 266 to 269 °C.
With `C#CCN[C@H]1CCc2ccccc21.Cl` [G, (S)-N-propargyl-1-aminoindan HCl salt] the “RATS MES 50” value (rats [2]) was 57 mg/kg.
For `NC1CCc2ccc(F)cc21` (stereo not drawn) [I, 6-fluoro-1-aminoindan], the “RATS MES 50” value (rats [2]) was under 50 mg/kg.
With `N[C@H]1CCc2ccc(F)cc21` [K, (S)-6-fluoro-1-aminoindan] the “activity in the MES model” value (mice [1]) was “showed activity”.
With `C#CCNC1CCc2ccc(F)cc21` (stereo not drawn) [L, 6-fluoro-N-propargyl-1-aminoindan] the “activity in the MES model” value (mice [1]) was “showed activity”.
